Assay: mn = molality of the nth substance listed, in mol/kg
Settings: 101 kPa, Liquid; for mass density: Pycnometric method; for viscosity: Capillary tube (Ostwald / Ubbelohde) method; for speed of sound: Linear variable-path acoustic interferometer

CC(=O)[O-].CC(=O)[O-].[Mg+2] [magnesium acetate] + O
Settings	mass density [kg/m3]	speed of sound [m/s]	viscosity [mPa·s]
319.95 K, m1 = 3.043	1164.1	–	–
319.95 K, m1 = 4.547	1219.5	–	–
319.95 K, m1 = 6.545	1273.9	–	–
320 K, m1 = 0.1671	1001.7	–	–
320.85 K, m1 = 0.0414	991.94	–	–
320.85 K, m1 = 5.732	1253	–	–
320.95 K, m1 = 1.106	1065.8	–	–
321.4 K, m1 = 0.646	1035.4	–	–
321.55 K, m1 = 6.187	1265.1	–	–
321.7 K, m1 = 3.819	1194.7	–	–
321.8 K, m1 = 6.545	1272.5	–	–
322.15 K, m1 = 0.4247	1019.9	–	–
322.15 K, m1 = 3.043	1162.9	–	–
322.3 K, m1 = 0.1671	1000.8	–	–
322.45 K, m1 = 5.165	1236.5	–	–
322.85 K, m1 = 1.866	1107.1	–	–
323.05 K, m1 = 1.106	1064.8	–	–
323.05 K, m1 = 1.327	1077.2	–	–
323.05 K, m1 = 2.411	1135.8	–	–
323.15 K, m1 = 0.0414	990.94	1544.5	0.5741
323.15 K, m1 = 0.0831	–	1549.2	0.5893
323.15 K, m1 = 0.1671	–	1557.7	0.6282
323.15 K, m1 = 0.4247	–	1591.1	0.7596
323.15 K, m1 = 0.646	–	1615.2	0.9059
323.15 K, m1 = 0.8751	–	1637.7	1.052
323.15 K, m1 = 1.106	–	1662.2	1.271
323.15 K, m1 = 1.354	–	1683.9	1.503
323.15 K, m1 = 1.608	–	1703.7	1.503
323.15 K, m1 = 1.866	–	1725	2.166
323.15 K, m1 = 2.134	–	1746.5	2.61
323.15 K, m1 = 2.411	–	1767.3	3.295
323.15 K, m1 = 2.622	–	1778.6	3.695
323.15 K, m1 = 3.043	–	1800.3	4.961
323.15 K, m1 = 3.437	–	1825	7.136
323.15 K, m1 = 3.819	–	1837.4	–
323.15 K, m1 = 4.001	–	–	10.52
323.15 K, m1 = 4.547	–	1857.2	–
323.15 K, m1 = 4.563	–	–	15.97
323.15 K, m1 = 4.929	–	–	19.29
323.15 K, m1 = 5.165	–	1871	–
323.15 K, m1 = 5.41	–	–	32.16
323.15 K, m1 = 5.732	–	1874.6	41.44
323.15 K, m1 = 6.187	–	–	65.72
323.45 K, m1 = 6.545	1271.3	–	–
323.5 K, m1 = 2.622	1143.8	–	–
323.65 K, m1 = 1.354	1078.3	–	–
323.75 K, m1 = 0.646	1034.3	–	–
323.75 K, m1 = 3.437	1181.9	–	–
323.75 K, m1 = 4.547	1217.1	–	–
323.95 K, m1 = 0.8751	1048.7	–	–
323.95 K, m1 = 2.134	1120.5	–	–
324.05 K, m1 = 1.608	1093.3	–	–
324.1 K, m1 = 0.0831	993.76	–	–
324.25 K, m1 = 0.4247	1018.8	–	–
324.25 K, m1 = 5.165	1235.2	–	–
324.55 K, m1 = 5.732	1250.4	–	–
325.15 K, m1 = 6.187	1262.4	–	–
325.25 K, m1 = 6.545	1269.9	–	–
325.75 K, m1 = 3.819	1192.2	–	–
328.55 K, m1 = 6.187	1259.8	–	–
